The record followed here is ChEMBL document CHEMBL1201862, “PubChem BioAssay data set” (2004).

Among the test systems are SF-539; UO-31; HOP-62; MDA-MB-231; BT-549; SF-295; NCI-H226; HL-60; RXF 393; OVCAR-8; MCF7; U-251; OVCAR-3; NCI-H522; HT-29; OVCAR-4; SN12C; TK-10; COLO 205; ACHN.
Assay in all cases: inhibition of tumour cell growth, NCI panel, 48 h

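How tested: cells in 96-well plates exposed to compound for 48 hours at five concentrations. At the GI50, growth is halved.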 The source made the active and inactive calls. No stated cut-off is given here; in the data, active = GI50 up to about 1.1 µM and inactive = higher.

For the molecule `CCOP(=O)(OCC)C(Nc1cccc([N+](=O)[O-])c1)c1ccccc1` (stereo unspecified), the GI50 was > 100 µM (inactive) in the assay on SF-539; 48.8 µM (inactive) in the assay with UO-31; > 100 µM (inactive) in the assay with HOP-62; 58.9 µM (inactive) in the assay with MDA-MB-231; > 100 µM (inactive) in the assay on BT-549; > 100 µM (inactive) in the assay with SF-295. Also, the GI50 in the assay on NCI-H226 was > 100 µM (inactive); in the assay on HL-60, 39.9 µM (inactive); in the assay with RXF 393, 88.3 µM (inactive); with OVCAR-8, > 10 µM (inactive); in the assay on MCF7, > 100 µM (inactive); in the assay with U-251 it was > 100 µM (inactive). The GI50 in the assay on OVCAR-3 was > 100 µM (inactive); in the assay on NCI-H522, 90.2 µM (inactive); in the assay with HT-29 it was 75 µM (inactive); in the assay on OVCAR-4 it was > 100 µM (inactive); in the assay with SN12C, > 100 µM (inactive); with TK-10, > 100 µM (inactive). The GI50 in the assay with COLO 205 was 34.6 µM (inactive); in the assay on ACHN, > 100 µM (inactive).

Turning to `CCCC(=O)NC1CCc2cc(OC)c(OC)c(OC)c2-c2ccc(OC)c(=O)cc21` (stereo unspecified), the GI50 in the assay with SF-539 was 0.000296 µM (active); in the assay on UO-31, 0.0813 µM (active); in the assay with HOP-62 it was 0.000679 µM (active); in the assay with MDA-MB-231 it was 0.0004 µM (active); in the assay with BT-549, 0.01 µM (active); in the assay on SF-295 it was 0.000512 µM (active). The GI50 in the assay on NCI-H226 was 0.000771 µM (active); in the assay on HL-60, 0.000321 µM (active); in the assay with RXF 393 it was 0.01 µM (active); with OVCAR-8 it was 0.00252 µM (active); in the assay on MCF7, 0.000257 µM (active); with U-251 it was 0.000344 µM (active). The GI50 in the assay with OVCAR-3 was 0.000384 µM (active); in the assay on NCI-H522, 0.000442 µM (active); with HT-29, 0.00036 µM (active); with SN12C, 0.000782 µM (active); in the assay on TK-10, 78.5 µM (inactive); with COLO 205, 0.000235 µM (active). The GI50 in the assay with ACHN was 0.019 µM (active).

Consider `Cn1c(CO)ccc1-c1ccc(-c2ccc[se]2)[se]1`, for which the GI50 in the assay with SF-539 is 17.3 µM (inactive); with UO-31, > 87.1 µM (inactive); in the assay with HOP-62 it was 20.7 µM (inactive); in the assay with MDA-MB-231, 23.6 µM (inactive); in the assay on BT-549, 21.8 µM (inactive); in the assay with SF-295, 34.6 µM (inactive). Also, the GI50 in the assay on NCI-H226 is 0.244 µM (active); in the assay with HL-60, 21.8 µM (inactive); with RXF 393, 3.07 µM (inactive); in the assay on OVCAR-8 it was 23 µM (inactive); with MCF7, 0.119 µM (active); with NCI-H522 it was 61.9 µM (inactive). The GI50 in the assay on HT-29 is 31.7 µM (inactive); with OVCAR-4, 0.043 µM (active); with SN12C it was > 52.4 µM (inactive); with TK-10 it was < 0.01 µM (active); in the assay with COLO 205, 3.46 µM (inactive); in the assay on ACHN, 72.1 µM (inactive).

With `COc1cc(/C=C2\CCC(C)C3C2=NN(C(C)=O)C3c2cc(OC)c(OC)c(OC)c2)cc(OC)c1OC` (stereo unspecified), the GI50 in the assay on SF-539 is > 100 µM (inactive); with HOP-62 it was > 59.2 µM (inactive); in the assay with MDA-MB-231, > 72.9 µM (inactive); in the assay on BT-549 it was > 100 µM (inactive); with SF-295 it was > 100 µM (inactive); with NCI-H226 it was > 100 µM (inactive). Moreover, the GI50 is > 91.6 µM (inactive) with HL-60; 43.5 µM (inactive) in the assay with RXF 393; > 100 µM (inactive) in the assay on OVCAR-8; > 77.6 µM (inactive) in the assay on MCF7; > 85.5 µM (inactive) in the assay with U-251; > 100 µM (inactive) in the assay on OVCAR-3. Also, the GI50 in the assay with NCI-H522 was 5.09 µM (inactive); in the assay on HT-29 it was > 100 µM (inactive); in the assay with OVCAR-4 it was > 100 µM (inactive); with SN12C it was > 100 µM (inactive); in the assay on TK-10 it was > 81.1 µM (inactive); with COLO 205, > 100 µM (inactive). Further, in the assay on ACHN, the GI50 is 25.1 µM (inactive).

Regarding `O=c1[nH]c2ccc(Cl)cc2o1`, the GI50 in the assay on SF-539, in the assay on UO-31, in the assay with HOP-62, with MDA-MB-231, in the assay on BT-549 and in the assay on SF-295 was > 100 µM (inactive) each time. Moreover, the GI50 in the assay on NCI-H226, in the assay on HL-60, in the assay with RXF 393, in the assay on OVCAR-8, in the assay on MCF7 and in the assay on U-251 was > 100 µM (inactive) each time. Moreover, the GI50 with OVCAR-3 is > 100 µM (inactive); in the assay on NCI-H522, 96.4 µM (inactive); in the assay on HT-29 it was > 100 µM (inactive); in the assay on OVCAR-4, > 100 µM (inactive); in the assay with SN12C it was > 100 µM (inactive); with TK-10, > 100 µM (inactive). For the same molecule, the GI50 in the assay on COLO 205 and with ACHN was > 100 µM (inactive) each time.

On to `Cc1ccc(S(=O)(=O)OCCC2CN(C(=O)OCc3ccccc3)C(C)(C)O2)cc1` (stereo unspecified), for which the GI50 in the assay on SF-539 is 12.5 µM (inactive); with UO-31, 3.69 µM (inactive); in the assay on MDA-MB-231 it was > 100 µM (inactive); in the assay on BT-549, 1.89 µM (inactive); with SF-295, 13.5 µM (inactive); in the assay with NCI-H226 it was 0.106 µM (active). In addition, the GI50 was 5.24 µM (inactive) in the assay on HL-60; 6.4 µM (inactive) in the assay with RXF 393; 4.2 µM (inactive) with OVCAR-8; 7.83 µM (inactive) with MCF7; 16.7 µM (inactive) in the assay with U-251; 39.6 µM (inactive) in the assay with OVCAR-3. The GI50 in the assay with NCI-H522 was 2.7 µM (inactive); with OVCAR-4, 6.68 µM (inactive); with SN12C, > 100 µM (inactive); with TK-10 it was 8.75 µM (inactive); in the assay on COLO 205, 7.38 µM (inactive); with ACHN, 12.9 µM (inactive).

On to `OC(CC1CCCCN1)c1ccc2c(c1)oc1ccccc12` (stereo unspecified), for which the GI50 in the assay with SF-539 was 46.1 µM (inactive); with UO-31 it was 37.2 µM (inactive); in the assay with HOP-62 it was 91.2 µM (inactive); in the assay with MDA-MB-231, > 100 µM (inactive); in the assay on BT-549, > 100 µM (inactive); with SF-295, 99.1 µM (inactive). Besides, the GI50 in the assay with NCI-H226 is 74.5 µM (inactive); with HL-60, > 100 µM (inactive); in the assay with RXF 393, 57.3 µM (inactive); in the assay on OVCAR-8, 84.1 µM (inactive); in the assay with MCF7, 83 µM (inactive); with U-251 it was > 100 µM (inactive). For the same molecule, the GI50 with OVCAR-3 is > 100 µM (inactive); with NCI-H522, 79.8 µM (inactive); in the assay on HT-29, 28.2 µM (inactive); with OVCAR-4 it was 94.2 µM (inactive); with SN12C it was > 100 µM (inactive); in the assay with TK-10 it was 72.1 µM (inactive). Moreover, the GI50 was 19.1 µM (inactive) in the assay with COLO 205 and > 100 µM (inactive) in the assay with ACHN.

In the case of `CCn1sc2ccccc2c1=O`, the GI50 in the assay with SF-539 was 13.5 µM (inactive); in the assay on HOP-62, 14.7 µM (inactive); in the assay with MDA-MB-231, 9.57 µM (inactive); with BT-549, 11.1 µM (inactive); with SF-295 it was 29.1 µM (inactive); in the assay on NCI-H226 it was 24.1 µM (inactive). In addition, the GI50 in the assay with HL-60 is 3.78 µM (inactive); in the assay on RXF 393 it was 4.81 µM (inactive); in the assay with OVCAR-8, 9.12 µM (inactive); with MCF7, 8.77 µM (inactive); in the assay on U-251, 6 µM (inactive); in the assay on OVCAR-3, 12.9 µM (inactive). For the same molecule, the GI50 is 1.6 µM (inactive) in the assay on NCI-H522; 14.4 µM (inactive) in the assay with HT-29; 7.1 µM (inactive) in the assay with OVCAR-4; 5.32 µM (inactive) in the assay on SN12C; 16.5 µM (inactive) in the assay on TK-10; 9.55 µM (inactive) in the assay with COLO 205. For the same molecule, in the assay with ACHN, the GI50 is 7.62 µM (inactive).

Regarding `COC(=N)C12C(N)=NC(OC)(OC)C1(C#N)C21C(=O)N(c2ccccc2)N=C1C` (stereo unspecified), the GI50 in the assay with SF-539, in the assay with UO-31, with HOP-62, with MDA-MB-231, with BT-549 and in the assay on SF-295 was > 100 µM (inactive) throughout. The GI50 with NCI-H226, in the assay with HL-60, in the assay with RXF 393, in the assay on OVCAR-8, with MCF7 and in the assay with U-251 was > 100 µM (inactive) in each case. Also, the GI50 in the assay with OVCAR-3, in the assay on NCI-H522, in the assay on HT-29, in the assay on OVCAR-4, with SN12C and in the assay with COLO 205 was > 100 µM (inactive) throughout. Also, in the assay with ACHN, the GI50 is > 100 µM (inactive).

Take `CCC(=O)C(CCN1CCC(N2C(=O)C(CCC#N)c3ccccc32)CC1)(c1ccccc1)c1ccccc1` (stereo unspecified): the GI50 with SF-539 was 18.3 µM (inactive); with UO-31, 9.53 µM (inactive); in the assay with HOP-62, 17.9 µM (inactive); with MDA-MB-231 it was 7.36 µM (inactive); with BT-549, 13.3 µM (inactive); in the assay on SF-295, 13.3 µM (inactive). For the same molecule, the GI50 in the assay with NCI-H226 is 17.3 µM (inactive); in the assay with HL-60, 4.67 µM (inactive); with RXF 393, 3.37 µM (inactive); in the assay with OVCAR-8 it was 11.4 µM (inactive); in the assay on MCF7, 11.5 µM (inactive); in the assay on U-251, 14.6 µM (inactive). Moreover, the GI50 with OVCAR-3 was 10.9 µM (inactive); in the assay with NCI-H522, 12.7 µM (inactive); with HT-29, 3.4 µM (inactive); in the assay with SN12C, 18 µM (inactive); with TK-10 it was 12.5 µM (inactive); in the assay with COLO 205, 8.97 µM (inactive). Moreover, in the assay with ACHN, the GI50 is 15.9 µM (inactive).
